Measurements taken from PMC8400955 (Pharmaceuticals, 2021).
Where “and” joins values, the source holds several entries; their conditions need not be identical. Equal entries are not always repeated.

Legend:
[1] = Stability in incubation medium only; format: in vitro ADME; conditions: 1 μM
Description: (§1) Hepatocytes of humans (#X008001), dogs (#M00205), rats (#M00005), and mice (#M005052) were purchased from BioIVT, NY, USA. Monkey hepatocytes were procured from RILD, Shanghai, China. The metabolic stability of ZB716 in human, monkey, dog, rat and mouse hepatocytes was investigated by incubating ZB716 with human, monkey, dog, rat, and mouse hepatocytes (0.5 × 10^6 cells/mL), or with incubation medium only.
(§2) parent disappearance vs. incubation time curve.
(§3) Scaled-up Clint = kV/N × Scaling Factor
(§4) metabolite formed during the reaction.

[2] = molecular target: CYP3A4 (Homo sapiens, UniProt P08684); experiment: CYP phenotyping, recombinant CYP3A4
Sequence of CYP3A4 (P08684 whole entry): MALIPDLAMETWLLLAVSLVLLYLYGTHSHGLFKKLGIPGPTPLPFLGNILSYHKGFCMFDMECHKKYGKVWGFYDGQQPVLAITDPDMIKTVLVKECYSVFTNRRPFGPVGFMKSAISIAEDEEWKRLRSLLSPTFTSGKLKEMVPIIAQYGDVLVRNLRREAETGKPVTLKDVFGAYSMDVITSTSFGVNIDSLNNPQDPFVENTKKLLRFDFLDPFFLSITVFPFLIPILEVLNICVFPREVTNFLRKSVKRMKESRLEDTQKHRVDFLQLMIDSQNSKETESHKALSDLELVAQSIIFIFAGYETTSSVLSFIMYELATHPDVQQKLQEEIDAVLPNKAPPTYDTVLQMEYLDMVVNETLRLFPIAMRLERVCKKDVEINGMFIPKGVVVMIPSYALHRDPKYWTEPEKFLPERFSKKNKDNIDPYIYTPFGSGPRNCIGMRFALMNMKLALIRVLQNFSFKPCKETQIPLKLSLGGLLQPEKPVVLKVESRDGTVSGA

[3] = molecular target: T1, CYP2C8 (Homo sapiens, UniProt P10632); experiment: CYP phenotyping, recombinant CYP2C8
T1 sequence (P10632 1-490): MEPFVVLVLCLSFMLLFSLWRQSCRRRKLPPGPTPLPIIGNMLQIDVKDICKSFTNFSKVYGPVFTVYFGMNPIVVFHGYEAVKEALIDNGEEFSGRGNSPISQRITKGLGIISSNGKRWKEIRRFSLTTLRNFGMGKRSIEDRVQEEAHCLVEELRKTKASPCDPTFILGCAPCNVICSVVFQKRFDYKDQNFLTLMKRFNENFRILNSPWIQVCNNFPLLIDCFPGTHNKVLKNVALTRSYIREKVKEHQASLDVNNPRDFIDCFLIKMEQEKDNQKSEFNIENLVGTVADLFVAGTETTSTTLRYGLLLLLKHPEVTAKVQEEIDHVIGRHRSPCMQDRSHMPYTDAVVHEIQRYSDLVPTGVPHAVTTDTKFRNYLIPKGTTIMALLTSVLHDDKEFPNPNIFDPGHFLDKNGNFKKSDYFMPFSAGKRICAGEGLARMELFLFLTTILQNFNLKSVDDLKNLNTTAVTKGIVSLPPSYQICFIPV

[4] = 7-day repeated-dose TK in dogs; format: in vivo; conditions: beagle, dog, plasma, po
Description: The TK of ZB716 was investigated following once-daily administration via oral gavage for 7 consecutive days. Beagle dogs (n = 1/sex) were orally administered ZB716 at dose levels of 100 and 200 mg/kg/day.
The TK of ZB716 was investigated following once-daily administration via oral gavage for 7 consecutive days. The Cmax and AUClast values of ZB716 increased with dose in a greater than dose-proportional manner. However, the exposure in the female given 100 mg/kg/day was higher than that in the female given 200 mg/kg/day on days 1 and 7 (Figure 3). During the study, females had higher exposure at 100 mg/kg/day, and males had higher exposure at 200 mg/kg/day.
Four-to-six-week-old Sprague Dawley rats (Crl: CD (SD)) (SPF/VAF) were purchased from Beijing Vital River Laboratory Animal Technology, Co. Ltd.). Six-month-old beagle dogs were purchased from Beijing Marshall Biotechnology Co. Ltd. Animals were quarantined/acclimated for 2–6 weeks prior to dose initiation. Both Sprague Dawley rats and beagle dogs were given oral administration of ZB716 (20% PG, 5% Solutol, and 75% of 40% HP-β-CD in water) at different dose levels. After treatment with the test articles, whole blood was collected from each study animal by puncture of the tail vein (0.4 mL of whole blood from rats) and/or the peripheral vein (0.6 mL of whole blood from dogs) into tubes containing K2EDTA at each timepoint: pre-dose, and 0.5, 1, 2, 4, 8, and 24 h post-dose. The plasma samples were divided into 2 aliquots (approximately equal in volume) and stored frozen at −75 ± 15 °C within 2 h of the collection until analysis at Pharmaron, China.
The stock solution of ZB716 (5.0 mg/mL) and ZB716-d6 (1 mg/mL) in ACN:DI Water = 1:1 was prepared and stored at −20 ± 5 °C. The desired serial concentrations of working reference analyte solutions were achieved by diluting a stock analyte solution with 50% acetonitrile (0.1% formic acid) in water solution. The bioanalytical LC–MS/MS method was validated for quantitative determination of ZB716 in Sprague Dawley rat plasma and beagle dog plasma, with acceptable selectivity, sensitivity, calibration curve, precision, and accuracy. This method is applicable for the determination of ZB716 in Sprague Dawley rat plasma and beagle dog plasma, with a lower limit of quantification of 20.0 ng/mL, and an upper limit of quantification of 10,000 ng/mL.
Five microliters of diluted supernatant was injected into the LC–MS/MS system (Shimadzu LC30AD HPLC system with a SynergiTM 4 μm Fusion-RP 80 Å (50 × 2 mm) column using gradient elution and a Triple Quad 5500 mass spectrometer) for quantitative analysis. The mobile phases used were 0.1% formic acid in deionized water and 0.1% formic acid in acetonitrile. The pharmacokinetic parameters T1/2 (the biological half-life), Cmax (maximal concentration), Tmax (time at which Cmax is observed), and AUC (area under the plasma concentration–time curve) were calculated from the plasma concentration versus time data using WinNonlin (Phoenix^TM, version 8.1, Mountain View, CA, USA). All PK studies were conducted by Pharmaron in Beijing, China.

[5] = Metabolic stability in dog hepatocytes; format: in vitro ADME
Description: as §1, §2, §3, §4

[6] = test system: dog hepatocytes; experiment: Metabolic stability in dog hepatocytes; format: in vitro ADME; conditions: 1 μM
Description: as §1, §2, §3, §4

[7] = molecular target: CYP2E1 (Homo sapiens, UniProt P05181); experiment: CYP phenotyping, recombinant CYP2E1
Sequence of CYP2E1 (P05181 whole entry): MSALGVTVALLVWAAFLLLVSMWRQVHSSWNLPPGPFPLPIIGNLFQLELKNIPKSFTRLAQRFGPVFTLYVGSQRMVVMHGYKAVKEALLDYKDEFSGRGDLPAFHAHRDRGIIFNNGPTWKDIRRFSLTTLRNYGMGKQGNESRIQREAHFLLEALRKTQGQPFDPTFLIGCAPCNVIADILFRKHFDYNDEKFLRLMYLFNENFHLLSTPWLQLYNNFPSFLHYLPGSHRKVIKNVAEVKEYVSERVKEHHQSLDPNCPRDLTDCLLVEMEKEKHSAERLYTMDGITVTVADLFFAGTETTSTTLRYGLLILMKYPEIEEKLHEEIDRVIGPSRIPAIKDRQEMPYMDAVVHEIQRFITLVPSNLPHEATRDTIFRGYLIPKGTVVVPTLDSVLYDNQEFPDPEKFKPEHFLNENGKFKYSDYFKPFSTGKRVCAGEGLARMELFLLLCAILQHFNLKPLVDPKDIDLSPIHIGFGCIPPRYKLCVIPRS

[8] = female, 100 mg/kg/day, day 1, PO 100 mg/kg/day, F
[9] = female, 100 mg/kg/day, day 7, PO 100 mg/kg/day, F
[10] = female, 200 mg/kg/day, day 1, PO 200 mg/kg/day, F
[11] = female, 200 mg/kg/day, day 7, PO 200 mg/kg/day, F
[12] = male, 100 mg/kg/day, day 1, PO 100 mg/kg/day, M
[13] = male, 100 mg/kg/day, day 7, PO 100 mg/kg/day, M
[14] = male, 200 mg/kg/day, day 1, PO 200 mg/kg/day, M
[15] = male, 200 mg/kg/day, day 7, PO 200 mg/kg/day, M

## C[C@]12CC[C@@H]3c4ccc(B(O)O)cc4C[C@@H](CCCCCCCCC[S+]([O-])CCCC(F)(F)C(F)(F)F)[C@H]3[C@@H]1CC[C@@H]2O (stereo partly shown) [ZB716, fulvestrant-3-boronic acid]
[1]
  Estimated In Vitro t1/2: ∞
  Remaining at 120 min: 100%
[2]; human
  half-life at 2 µM: 5.91 ± 0.39 min
[2]; recombinant CYP3A4, 2 µM ZB716
  Clint: 2.35 µL/min/pmol CYP and 2.35 ± 0.15 µL/min/pmol CYP
[3]; human
  half-life at 2 µM: 0.185 ± 0.02 h
[3]; recombinant CYP2C8, 2 µM ZB716
  Clint: 1.25 ± 0.14 µL/min/pmol CYP
[4]; both sexes, 200 mg/kg/day, 7-day repeat oral administration, 100 and 200 mg/kg/day, mostly
  Tmax at 7 days: 0.5 to 2 h
[4]; [8]
  AUC(0-t): 55600 ng·h/mL
  Cmax: 7210 ng/mL
  Tmax: 2 h
[4]; [9]
  AUC(0-t): 81100 ng·h/mL
  Cmax: 12300 ng/mL
  Tmax: 4 h
[4]; [10]
  AUC(0-t): 9780 ng·h/mL
  Cmax: 1740 ng/mL
  Tmax: 1 h
[4]; [11]
  AUC(0-t): 46700 ng·h/mL
  Cmax: 8420 ng/mL
  Tmax: 2 h
[4]; [12]
  AUC(0-t): 5070 ng·h/mL
  Cmax: 1350 ng/mL
  Tmax: 1 h
[4]; [13]
  AUC(0-t): 17800 ng·h/mL
  Cmax: 3430 ng/mL
  Tmax: 1 h
[4]; [14]
  AUC(0-t): 52200 ng·h/mL
  Cmax: 8430 ng/mL
  Tmax: 2 h
[4]; [15]
  AUC(0-t): 103000 ng·h/mL
  Cmax: 18300 ng/mL
  Tmax: 2 h
[5]; read-out: Estimated In Vitro t1/2
  half-life at 1 μM: 0.445 ± 0.00667 h
[5]; read-out: In Vitro Clint
  hepatocyte CLint at 1 μM: 51.9 ± 0.7 µL/min/1e6 cells
[5]; read-out: Scaled-Up Clint
  CLint scaled at 1 μM: 357 ± 5 mL/min/kg
[6]
  Remaining at 120 min: 6.99 ± 0.46%
[7]; human
  half-life at 2 µM: 0.323 ± 0.02 h
[7]; recombinant CYP2E1, 2 µM ZB716
  Clint: 0.716 ± 0.044 µL/min/pmol CYP
